Results reported in patent US20180021278A1, “TREATMENT OR PREVENTION OF INFLAMMATION USING SERINE” (NESTEC S.A., priority 2015, published 2018).

System: DSS-induced colitis
Assay: DSS-induced colitis in rats, histological total colitis score of colon sections (HE staining)
Assay type: in vivo
Settings: male Sprague-Dawley rats, 5% DSS D0-D8 then 2% DSS D9-D28, control diet supplemented with 10 g/kg dry matter serine (DSS-SER) vs alanine-supplemented DSS-ALA group
Experimental: The experimental procedures were carried out in accordance to European guidelines for the care and use of laboratory animals (Directive 2010/63/UE). 30 male Sprague-Dawley rats from Janvier (France), aged […] and weighting around 500/700g on the day of arrival, were used for this study. Animals were individually housed in cages. During the study, they had free access to food and drinking water or a dextran sulfate sodium (DSS, MW 36-44 kDa, ICN Biomedicals) solution ad libitum. Colitis was induced by treating rats with 5% DSS from D0 to D8 (acute colitis) and then 2% DSS from D9 to D28 (chronic colitis). DSS was dissolved in autoclaved water and provided ad libitum to the rats. Animals of the control group were given water not containing DSS from D0 to D28.
3 groups of rats received the following treatment and diets: […]
At the end of the experiment (D28), animals were anesthetized using a combination of ketamine and xylasine and then euthanized by cervical dislocation. […] A score (ranging from 0 to 3) was finally determined for each criterion on each colon section and a total score was calculated.

N[C@@H](CO)C(=O)O [Serine, serine]
Total colitis score (sum of 0-3 scores for mucosal degeneration, mucosal regeneration and hyperplasia, acute and sub-acute inflammation) (p<0.05): significantly lower | Total colitis score (sum of 0-3 scores for mucosal degeneration, mucosal regeneration and hyperplasia, acute and sub-acute inflammation) (p<0.05, listed as serine): reduced colitis
